Data: patent publication EP0094815B1, “Oligopeptide prodrugs” (SMITHKLINE BECKMAN CORPORATION, priority 1982, dated 1983)

Legend:
[1] = system: C. albicans; assay: Minimum inhibitory concentration, two-fold broth dilution (Method B); type: cell-based, Candida albicans; conditions: C. albicans in Method B; text summary of MIC table (table is an image)
Method: (§1) The minimum inhibitory concentration of the test compound was determined by two-fold broth dilution tests in yeast carbon base medium, containing 200 pg/ml of sodium glutamate. The compounds were diluted from […] to 0.25 pg/ml and the test medium was inoculated with a suspension of C. albicans grown in the same medium for 15 hours at 37°. The final inoculum sizes in the tests were approximately 10^4 cfu/ml and 10^3 cfu/ml. The tubes were incubated at 37° for 24 and 48 hours and observed for inhibition.

[2] = Stability of a-substituted glycine peptides in aqueous buffer (Ellman colorimetric assay); type: physicochemical; conditions: for half-life: 0.2 M phosphate buffer (pH 7.0), no enzyme, read-out: stable (t)
[3] = system: Leucine Aminopeptidase; assay: Enzyme catalyzed warhead release (Ellman colorimetric assay); type: biochemical, hog; conditions: pH 7.0; linear rate over the observation period (5 min)
Method: In each case upon addition of the enzyme, Leucine Aminopeptidase, the warhead was released. The release was maintained at a linear rate over the observation period (5 min). […] These observations are consistent with literature reports of the optimal pH necessary for the efficacy of this enzyme. These observations were obtained by colorimetric assay, which involves the reaction between a free sulfhydryl group and 5,5'-dithio-bis(2-nitrobenzoic acid), the Ellman reagent, to produce a yellow color as follows: [drawing 44] The peptide from Example 4 was dissolved in 4 mM of phosphate buffer solution (pH 7) containing the Ellman reagent at a level of 4 mg/ml to produce a 1 mM solution of the peptide. The resulting mixture was monitored using a spectrophotometer at a wavelength of 412 nm. To 1 ml of this solution was added 100 µg of hog kidney leucine aminopeptidase (Sigma) and the enzymatic hydrolysis was continuously monitored at 412 nm.

[4] = system: representative fungal and bacterial organisms; assay: Biological screen of the utility (antimicrobial) example; type: cell-based; conditions: product of first deblocking, later found not completely deblocked
Method: A prototypal compound, L-alanyl-2-(5-fluorouracil-2-yl)-L-glycine, was evaluated against representative fungal and bacterial organisms.
Candida albicans strains B―311 and BC 759, obtained from Smith Kline and French Laboratory Culture Collection were grown in a trypticase soy broth at 28° for 7 hours. The seeded plates, with this medium containing 1.5% agar, were prepared by inoculating 1 ml of the inoculum in 1 I of yeast-carbon base medium, containing 200 µg/ml of lysine or glutamate as a sole source of nitrogen.
as §1
A method similar to A above but using E. coli was used which employs a M-9 medium (basic salts with ammonium ion as the nitrogen source and glucose as the carbon source).

| half-life [2] | Compound | antifungal activity [1] | further results |
| --- | --- | --- | --- |
| – | C[C@H](N)C(=O)NC(C(=O)O)n1cc(F)c(=O)[nH]c1=O (mixture of isomers) [L-, DL, L-alanyl-2-(5-fluorouracil-1-yl)-D,L-glycine] | antifungal activity | – |
| > 83.3 h | C[C@H](N)C(=O)NC(SCCNc1cc(C(=O)O)nc(C(=O)O)c1)C(=O)O (stereo partly shown) [Example 4] | – | non-enzymatic warhead release ([2]; pH 7.5): no noticeable increases; warhead release upon addition of the enzyme [3]: released |
| – | C[C@H](N)C(=O)NC(NNS(=O)(=O)c1cc(C(=O)O)cc(C(=O)O)c1)C(=O)O (stereo partly drawn) [Example 12, L-alanyl-2-(3,5-dicarboxy-phenylsulfohydrazino)-D,L-glycine] | – | activity in the biological screen [4]: not active |
| > 83.3 h | C[C@H](N)C(=O)NC(Sc1ccccc1)C(=O)O (stereo partly drawn) [Example 13, L-alanyl-2-(thiophenyl)-D,L-glycine] | – | – |
| – | C[C@H](N)C(=O)NC(C(=O)O)n1cc(F)c(=O)[nH]c1=O (stereo partly drawn) [L-L, L-alanyl-2-(5-fluorouracil-2-yl)-L-glycine] | antifungal activity | – |
